# Reference: patent US20210300921A1, “EP4 INHIBITORS AND SYNTHESIS THEREOF” (Arrys Therapeutics, Inc., priority 2018, published 2021)
# Columns and labels:
# Assay type in all cases: in vivo, BALB/c mice
# [1] = system: CT-26 tumors; assay: Immune cell composition of CT-26 tumors by flow cytometry after 7 days of dosing; settings: for percentage of dendritic cells (CD45, CD11c positive) in tumors: FIG. 7b; for regulatory T cells (CD45, CD4, FoxP3, CD25 positive) in tumors: versus vehicle, FIG. 7a; for percentage of activated T cells (CD45, CD3, CD8) by CD25 expression in tumors: FIG. 7c
# Protocol: The immune cell composition of Compound X (the compound as described in Example 15, above) as a single agent and combined with a mouse anti-PD1 antibody was evaluated in the CT-26 mouse colon adenocarcinoma model grown in BALB/c mice. Mice were inoculated subcutaneously in the right flank with 5×10^5 tumor cells. When tumors reached an average size of 85 mm^3 dosing was initiated. The dosing regimens in the 4 separate cohorts comprising 10 mice each are listed as follows:
# After dosing animals for 7 days, tumors were resected and used to prepare single cell suspensions. Live cells representing tumor and immune cells were stained with cocktails of antibodies targeting multiple immune cell markers (anti-CD45, anti-CD3, anti-CD4, anti-CD8, anti-CD25, anti-FoxP3, anti-PD-1, anti-CD11c) conjugated to different fluorescent tags. The stained cells were fixed in 4% paraformaldehyde and quantified using a multi-color flow cytometer (Fortessa). The data was analyzed with FloJo software.
# [2] = system: CT-26 mouse colon adenocarcinoma model; assay: Antitumor activity in the CT-26 mouse colon adenocarcinoma model, additional experiment (7 mice per cohort); settings: FIG. 5
# Protocol: (§1) The antitumor activity of Compound X as a single agent and combined with a mouse anti-PD1 antibody was evaluated in the CT-26 mouse colon adenocarcinoma model grown in BALB/c mice in an additional experiment. Mice were inoculated subcutaneously in the right flank with 5×10^5 tumor cells. When tumors reached an average size of 91 mm^3 dosing was initiated. The dosing regimens in the 4 separate cohorts comprising 7 mice each are as follows: […]
# [3] = system: CT-26 mouse colon adenocarcinoma model; assay: Antitumor activity in the CT-26 mouse colon adenocarcinoma model, Compound X with or without anti-PD-1 (10 mice per cohort); settings: for tumor growth kinetics during the treatment period: versus single agent anti-PD-1; for tumor growth kinetics during the period of dosing: versus vehicle
# Protocol: as §1, with “anti-PD-1” for “anti-PD1”, “mice.” for “mice in an additional experiment.”, “71” for “91”, “mm^3 (6 days after tumor cell inoculation)” for “mm^3”, “8” for “4”, “10” for “7”
# [4] = system: 4T1 mouse breast cancer model; assay: Antitumor activity in the 4T1 mouse breast cancer model, Compound X with or without anti-CTLA4; settings: for tumor growth kinetics during the period of dosing: FIG. 3
# Protocol: The antitumor activity of Compound X (the compound as described in Example 15, above) as a single agent and combined with a mouse anti-CTLA4 antibody was evaluated in the 4T1 mouse breast cancer model grown in BALB/c mice. Mice were inoculated subcutaneously in the right flank with 3×10^5 tumor cells. When tumors reached an average size of 100 mm^3 (7 days after tumor cell inoculation) dosing was initiated.
# [5] = system: 4T1 mouse breast cancer model; assay: Antitumor activity in the 4T1 mouse breast cancer model, additional experiment with anti-PD1 (7 mice per cohort); settings: FIG. 6
# Protocol: as §1, with “4T1” for “CT-26”, “breast cancer” for “colon adenocarcinoma”, “3×10^5” for “5×10^5”, “97” for “91”
# [6] = single agent: Compound X 15 mg/kg BID x7 days po or anti-PD-1 10 mg/kg Q3D x3 ip
# [7] = Compound X 15 mg/kg BID in combination with anti-CTLA4
structure (smiles),measurement,setting,value
C[C@H](NC(=O)c1cc(Cl)cnc1Oc1cccc(F)c1)c1ccc(C(=O)O)cc1 [Compound X],"percentage of dendritic cells (CD45, CD11c positive) in tumors",[1]; Compound X 15 mg/kg BID dosed with anti-PD-1 10 mg/kg Q3D,increased percentage
same,"regulatory T cells (CD45, CD4, FoxP3, CD25 positive) in tumors",[1]; combination of Compound X 15 mg/kg BID and anti-PD-1 10 mg/kg Q3D,significant decrease
same,"percentage of activated T cells (CD45, CD3, CD8) by CD25 expression in tumors",[1]; combination of Compound X 15 mg/kg BID with anti-PD-1 10 mg/kg Q3D,increased percentage
same,"percentage of activated T cells (CD45, CD3, CD8) by CD25 expression in tumors",[1]; either agent dosed alone,did not
same,"percentage of dendritic cells (CD45, CD11c positive) in tumors",[1]; [6],increased percentage
same,"regulatory T cells (CD45, CD4, FoxP3, CD25 positive) in tumors",[1]; [6],significant decrease
same,tumor growth kinetics during the period of dosing,"[2]; Compound X 15 mg/kg BID combined with anti-PD1 10 mg/kg BIW ip, versus single agents",lower than mice treated with either single agent
same,tumor growth kinetics during the period of dosing,"[2]; single agent: Compound X 15 mg/kg BID po or anti-PD1 10 mg/kg BIW ip, versus vehicle",less than that of the vehicle group
same,mice still alive 99 days after tumor inoculation,[3]; Compound X 15 mg/kg BID in combination with anti-PD-1,5 out of 10
same,growth kinetics after treatment was discontinued,"[3]; Compound X 15 mg/kg BID in combination with anti-PD-1, FIG. 1",decreased growth kinetics relative to anti-PD-1
same,survival after treatment was discontinued,"[3]; Compound X 15 mg/kg BID in combination with anti-PD-1, FIG. 2",improved survival
same,tumor free mice 99 days after tumor inoculation,"[3]; Compound X 15 mg/kg BID in combination with anti-PD-1, of 10 mice",4
same,tumor growth kinetics during the treatment period,[3]; Compound X 15 mg/kg BID p.o. combined with anti-PD-1 10 mg/kg i.p.,not notably different mice treated with single agent anti-PD-1
same,tumor growth kinetics during the period of dosing,"[3]; Compound X 15 mg/kg BID p.o., single agent, FIG. 1",not notably different from the vehicle treated mice
same,tumor growth kinetics during the treatment period,[3]; Compound X 15 mg/kg QD p.o. combined with anti-PD-1 10 mg/kg i.p.,not notably different mice treated with single agent anti-PD-1
same,tumor growth kinetics during the period of dosing,"[3]; Compound X 15 mg/kg QD p.o., single agent, FIG. 1",not notably different from the vehicle treated mice
same,mice still alive and tumor free 99 days after tumor inoculation,[3]; single agent,1 out of 10
same,mice still alive 47 days after tumor inoculation,[4]; [7],7 of 10
same,mice still alive at the end of the study 55 days after tumor inoculation,[4]; [7],3 of 10
same,survival rate after treatment was discontinued,"[4]; Compound X 15 mg/kg BID in combination with anti-CTLA4, FIG. 4",improved survival rate relative to either single agent alone
same,tumor growth kinetics during the period of dosing,"[4]; Compound X and anti-CTLA4 combined, versus either agent alone",decreased relative to either agent when dosed alone
same,mice alive 47 days after tumor inoculation,[4]; single agent alone,none
same,tumor growth kinetics during the period of dosing,"[4]; single agent: Compound X 15 mg/kg BID or anti-CTLA4, versus vehicle",decreased relative to the vehicle treated mice
same,tumor growth kinetics during the period of dosing,[5]; Compound X 15 mg/kg BID combined with anti-PD1 10 mg/kg BIW ip,lower than mice treated with either single agent
same,tumor growth kinetics during the period of dosing,"[5]; Compound X 15 mg/kg BID po, single agent",less than that of the vehicle group and anti-PD1 when dosed alone
